According to US9029386B2, “Pyridine derivatives useful as kinase inhibitors” (YM Biosciences Australia Pty Ltd, priority 2006, dated 2015):

What was measured:
Assay type in all cases: biochemical
[1] = molecular target: T1, EphA8(h) (Homo sapiens, UniProt P29322); assay: KinaseProfiler assay (Upstate), EphA8
T1 construct: purchased Upstate Biotechnology (Dundee, UK), KinaseProfiler service
T1 sequence (P29322 28-1005): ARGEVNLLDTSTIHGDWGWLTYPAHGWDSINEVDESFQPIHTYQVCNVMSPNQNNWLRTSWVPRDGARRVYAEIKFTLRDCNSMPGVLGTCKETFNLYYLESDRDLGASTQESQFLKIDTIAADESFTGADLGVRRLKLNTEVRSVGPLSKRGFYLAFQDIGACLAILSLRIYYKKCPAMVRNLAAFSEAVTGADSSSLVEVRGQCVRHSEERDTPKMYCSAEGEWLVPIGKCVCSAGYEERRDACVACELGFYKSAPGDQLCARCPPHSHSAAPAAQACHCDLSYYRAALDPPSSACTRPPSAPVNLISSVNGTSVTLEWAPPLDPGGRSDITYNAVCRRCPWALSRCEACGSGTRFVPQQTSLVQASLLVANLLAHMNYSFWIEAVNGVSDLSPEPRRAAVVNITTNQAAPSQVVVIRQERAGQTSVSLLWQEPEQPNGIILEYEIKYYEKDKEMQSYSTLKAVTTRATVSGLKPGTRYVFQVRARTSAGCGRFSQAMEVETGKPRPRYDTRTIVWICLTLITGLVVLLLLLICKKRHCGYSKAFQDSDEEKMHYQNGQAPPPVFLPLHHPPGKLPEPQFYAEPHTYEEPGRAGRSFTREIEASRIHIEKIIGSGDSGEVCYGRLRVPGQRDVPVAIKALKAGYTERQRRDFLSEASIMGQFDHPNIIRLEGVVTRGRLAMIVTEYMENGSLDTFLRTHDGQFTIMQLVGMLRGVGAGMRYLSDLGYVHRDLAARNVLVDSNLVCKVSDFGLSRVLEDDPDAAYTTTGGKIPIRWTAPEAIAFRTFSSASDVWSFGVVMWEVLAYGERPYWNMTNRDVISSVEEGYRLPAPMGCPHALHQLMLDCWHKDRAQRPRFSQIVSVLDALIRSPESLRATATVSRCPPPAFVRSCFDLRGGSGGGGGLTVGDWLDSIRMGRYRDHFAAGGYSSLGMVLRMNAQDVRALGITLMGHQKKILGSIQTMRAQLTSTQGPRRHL
Method: (§1) Further enzyme assays were conducted at Upstate Biotechnology (Dundee, UK) in the KinaseProfiler™ Assay system.
(§2) The general protocol is as follows. All kinases are pre-diluted to a 10× working concentration prior to addition into the assay. The composition of the dilution buffer for the kinases is 20 mM MOPS pH 7.0, 1 mM EDTA, 0.1% β-mercaptoethanol, 0.01% Brij-35, 5% glycerol, 1 mg/ml BSA. All substrates are dissolved and diluted to working stocks in de-ionised water.

[2] = molecular target: T2, Lck(h) (Homo sapiens, UniProt P06239); assay: KinaseProfiler assay (Upstate), Lck
T2 construct: purchased Upstate Biotechnology (Dundee, UK), KinaseProfiler service
T2 sequence (P06239 whole entry): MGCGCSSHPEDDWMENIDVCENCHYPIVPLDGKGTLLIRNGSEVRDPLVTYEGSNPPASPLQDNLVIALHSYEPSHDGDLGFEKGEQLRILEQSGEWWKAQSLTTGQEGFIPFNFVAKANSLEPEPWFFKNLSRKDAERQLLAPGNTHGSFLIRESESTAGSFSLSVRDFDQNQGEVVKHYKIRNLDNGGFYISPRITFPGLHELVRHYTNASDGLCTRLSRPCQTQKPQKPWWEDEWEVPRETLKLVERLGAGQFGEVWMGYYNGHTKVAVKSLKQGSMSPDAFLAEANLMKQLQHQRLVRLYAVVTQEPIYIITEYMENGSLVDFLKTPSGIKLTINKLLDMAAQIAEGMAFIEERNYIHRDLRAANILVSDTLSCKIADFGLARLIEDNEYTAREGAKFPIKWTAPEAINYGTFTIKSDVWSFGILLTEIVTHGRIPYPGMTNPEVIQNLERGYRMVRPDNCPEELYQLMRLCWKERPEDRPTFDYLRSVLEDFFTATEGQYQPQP
Method: as §1, §2
In a final reaction volume of 25 μl, Lck (h) (5-10 mU) is incubated with 50 mM Tris pH 7.5, 0.1 mM EGTA, 0.1 mM Na3VO4, 250 μM […] (Cdc2 peptide), 10 mM MgAcetate and [γ-33P-ATP] (specific activity approx. 500 cpm/pmol, concentration as required). The reaction is initiated by the addition of the MgATP mix. After incubation for 40 minutes at room temperature, the reaction is stopped by the addition of 5 μl of a 3% phosphoric acid solution. 10 μl of the reaction is then spotted onto a P30 filtermat and washed three times for 5 minutes in 75 mM phosphoric acid and once in methanol prior to drying and scintillation counting.

[3] = molecular target: T3, PDGFR β tyrosine kinase (Homo sapiens, UniProt P09619); assay: Alphascreen protein tyrosine kinase assay, PDGFRβ
T3 construct: purchased Upstate Cell Signalling Solutions, CA, USA 14-463
T3 sequence (P09619 33-1106): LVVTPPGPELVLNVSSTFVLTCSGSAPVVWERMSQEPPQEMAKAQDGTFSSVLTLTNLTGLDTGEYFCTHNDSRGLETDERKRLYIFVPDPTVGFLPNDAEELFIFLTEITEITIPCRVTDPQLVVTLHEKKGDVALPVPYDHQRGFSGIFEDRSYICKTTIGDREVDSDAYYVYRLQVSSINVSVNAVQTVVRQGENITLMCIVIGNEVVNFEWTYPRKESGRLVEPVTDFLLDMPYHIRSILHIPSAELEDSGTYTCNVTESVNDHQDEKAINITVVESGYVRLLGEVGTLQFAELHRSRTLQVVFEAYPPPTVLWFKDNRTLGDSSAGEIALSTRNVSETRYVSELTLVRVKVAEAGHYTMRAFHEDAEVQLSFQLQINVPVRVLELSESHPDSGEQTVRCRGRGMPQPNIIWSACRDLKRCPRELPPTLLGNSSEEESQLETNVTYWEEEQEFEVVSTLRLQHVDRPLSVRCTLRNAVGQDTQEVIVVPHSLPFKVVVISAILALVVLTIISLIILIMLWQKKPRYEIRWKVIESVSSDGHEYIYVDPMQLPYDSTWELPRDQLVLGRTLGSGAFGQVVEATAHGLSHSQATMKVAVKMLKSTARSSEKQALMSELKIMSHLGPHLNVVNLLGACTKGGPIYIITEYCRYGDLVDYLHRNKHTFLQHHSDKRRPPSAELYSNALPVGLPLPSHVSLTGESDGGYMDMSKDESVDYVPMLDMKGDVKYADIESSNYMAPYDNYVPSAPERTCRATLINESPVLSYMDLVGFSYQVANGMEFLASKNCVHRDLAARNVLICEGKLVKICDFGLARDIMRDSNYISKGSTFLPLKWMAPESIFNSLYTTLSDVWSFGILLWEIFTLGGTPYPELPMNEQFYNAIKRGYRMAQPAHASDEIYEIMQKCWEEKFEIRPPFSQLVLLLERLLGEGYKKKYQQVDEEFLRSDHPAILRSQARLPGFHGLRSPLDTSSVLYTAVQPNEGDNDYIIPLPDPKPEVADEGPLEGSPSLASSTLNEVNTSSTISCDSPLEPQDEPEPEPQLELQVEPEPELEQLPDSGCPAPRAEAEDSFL

[4] = molecular target: T4, kinase domain of human c-kit (Homo sapiens, UniProt P10721); assay: Alphascreen protein tyrosine kinase assay, c-KIT
T4 construct: from codon M552 to end; made in house; host or cells: Sf9 insect cells (baculovirus)
T4 sequence (P10721 552-976 limits assumed): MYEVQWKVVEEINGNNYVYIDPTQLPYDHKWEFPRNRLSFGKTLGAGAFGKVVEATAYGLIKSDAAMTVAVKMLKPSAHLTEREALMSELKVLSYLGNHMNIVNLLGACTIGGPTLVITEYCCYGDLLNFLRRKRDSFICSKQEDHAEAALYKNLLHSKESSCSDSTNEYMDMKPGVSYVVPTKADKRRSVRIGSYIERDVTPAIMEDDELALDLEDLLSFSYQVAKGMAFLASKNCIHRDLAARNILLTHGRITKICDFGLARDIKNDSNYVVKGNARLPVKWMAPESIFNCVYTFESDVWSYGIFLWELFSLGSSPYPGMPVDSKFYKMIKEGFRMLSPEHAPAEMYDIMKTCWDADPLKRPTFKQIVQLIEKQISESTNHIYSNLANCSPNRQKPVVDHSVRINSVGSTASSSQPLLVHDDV
Method: For screening purposes, compounds were diluted in 96 well plates at a concentration of 20 μM. Plates were warmed at 37° C. for 30 minutes before assay.
The kinase domain of human c-kit from codon M552 to end was cloned into the pDEST-20 expression vector (Invitrogen). The c-kit plasmid was then transformed into competent DH10Bac cells (Gibco), and the recombinant baculovirus produced prepared for transfection into Sf9 insect cells.
Baculovirus preparations from each of construct were infected into five liters of SF9 cells (Invitrogen) grown in SF-900 medium (Invitrogen) to a cell density of approximately 1−2×10^6 cells/ml. […] Cells were harvested and lysed. Tyrosine kinase domains were purified by affinity chromatography on a glutathione-agarose column (Scientifix Pty. Ltd. catalog #: GSH-200).
Kinase assays were performed in 384 well Optiplates (Packard) using an Alphascreen Protein Tyrosine Kinase kit. […] Alphascreen phosphotyrosine acceptor beads followed by streptavidin donor beads were added under subdued light. The Alphascreen plates were read on a Packard Fusion Alpha. Inhibitors were added to the assays thirty minutes prior to the addition of ATP. Inhibitors were added in aqueous DMSO, with DMSO concentrations never exceeding 1%.

C[C@H](Nc1cncc(-c2cccc(N3CCOCC3)c2)n1)c1cccc(NC(=O)c2cccc(C(F)(F)F)c2)c1 [Compound 149]
inhibition at 0.1 µM [1]: 81%
inhibition at 1 µM [1]: 103%
inhibition at 0.1 µM [2]: 68%
inhibition at 1 µM [2]: 95%
IC50 [3]: < 100 nM
IC50 [4]: < 1000 nM

Cc1cccc(C(=O)Nc2cccc([C@H](C)Nc3cncc(-c4cccc(N5CCOCC5)c4)n3)c2)c1 [Compound 147]
inhibition at 0.1 µM [1]: 71%
inhibition at 1 µM [1]: 98%
inhibition at 0.1 µM [2]: 50%
inhibition at 1 µM [2]: 89%
IC50 [3]: < 100 nM
IC50 [4]: < 100 nM

Cc1cccc(C(=O)Nc2cccc([C@H](C)Nc3cncc(C(N)=O)n3)c2)c1 [Compound 133, (S)-6-(1-(3-(3-methylbenzamido)phenyl)ethylamino)pyrazine-2-carboxamide]
inhibition at 0.1 µM [1]: 7%
inhibition at 1 µM [1]: 64%
inhibition at 0.1 µM [2]: 0%
inhibition at 1 µM [2]: 16%
IC50 [3]: < 100 nM
IC50 [4]: < 100 nM

Cc1cccc(C(=O)Nc2cccc([C@H](C)Nc3cncc(-c4ccc(S(N)(=O)=O)cc4)n3)c2)c1 [Compound 77]
inhibition at 0.1 µM [1]: 66%
inhibition at 1 µM [1]: 99%
inhibition at 0.1 µM [2]: 45%
inhibition at 1 µM [2]: 84%
IC50 [3]: < 1000 nM
IC50 [4]: < 100 nM

Cc1cccc(C(=O)Nc2ccc(C)c([C@H](C)Nc3cncc(Cl)n3)c2)c1 [Compound 168]
inhibition at 0.1 µM [1]: 91%
inhibition at 1 µM [1]: 102%
inhibition at 0.1 µM [2]: 85%
inhibition at 1 µM [2]: 98%

C[C@H](Nc1cncc(Cl)n1)c1cccc(NC(=O)c2cccc(C(F)(F)F)c2)c1 [Compound 114, (S)—N-(3-(1-(6-chloropyrazin-2-ylamino)ethyl)phenyl)-3-(trifluoromethyl)benzamide]
inhibition at 0.1 µM [1]: 67%
inhibition at 1 µM [1]: 97%
inhibition at 0.1 µM [2]: 53%
inhibition at 1 µM [2]: 90%
IC50 [3]: < 100 nM
IC50 [4]: < 1000 nM

Cc1cccc(C(=O)Nc2cccc([C@H](C)Nc3cncc(-n4ccnc4)n3)c2)c1 [Compound 143, (S)—N-(3-(1-(6-(1H-imidazol-1-yl)pyrazin-2-ylamino)ethyl)phenyl)-3-methylbenzamide]
inhibition at 0.1 µM [1]: 30%
inhibition at 1 µM [1]: 82%
inhibition at 0.1 µM [2]: 24%
inhibition at 1 µM [2]: 77%
IC50 [3]: < 100 nM
IC50 [4]: < 100 nM

Cc1cccc(C(=O)Nc2cccc([C@H](C)Nc3cncc(-c4ccc(N5CCN(C)CC5)cc4)n3)c2)c1 [Compound 129]
inhibition at 0.1 µM [1]: 42%
inhibition at 1 µM [1]: 90%
inhibition at 0.1 µM [2]: 73%
inhibition at 1 µM [2]: 96%
IC50 [3]: < 100 nM
IC50 [4]: < 100 nM

C[C@H](Nc1cncc(-c2ccc(N3CCN(C)CC3)cc2)n1)c1cccc(NC(=O)c2cccc(C(F)(F)F)c2)c1 [Compound 148]
inhibition at 0.1 µM [1]: 81%
inhibition at 1 µM [1]: 100%
inhibition at 0.1 µM [2]: 95%
inhibition at 1 µM [2]: 97%
IC50 [3]: < 100 nM
IC50 [4]: < 100 nM
